Results as given in PubChem BioAssay (NCI).
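Results reflect a 48-hour exposure of cells in 96-well plates to compound at five concentrations. At the GI50, growth is halved. TGI: concentration producing complete growth inhibition.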

Key:
Test in all cases: NCI-60 cell line screen, 48 h
SR leukemia = tested on: SR leukemia
HS 578T breast = tested on: HS 578T breast
PC-3 prostate = tested on: PC-3 prostate
SF-268 CNS = tested on: SF-268 CNS
TK-10 renal = tested on: TK-10 renal
SNB-75 CNS = tested on: SNB-75 CNS
SK-MEL-2 melanoma = tested on: SK-MEL-2 melanoma
OVCAR-4 ovarian = tested on: OVCAR-4 ovarian
HOP-92 NSCLC = tested on: HOP-92 NSCLC
NCI-H460 lung = tested on: NCI-H460 lung

## Oc1ccc2ccccc2c1N=Nc1ccc(N=Nc2ccccc2)cc1
SR leukemia
  TGI: 88.2 µM
HS 578T breast
  TGI: > 100 µM
PC-3 prostate
  TGI: > 100 µM
SF-268 CNS
  TGI: > 100 µM
TK-10 renal
  TGI: > 100 µM
SNB-75 CNS
  TGI: > 100 µM
SK-MEL-2 melanoma
  TGI: > 100 µM
OVCAR-4 ovarian
  TGI: > 100 µM

## C#CCCCCC#CC1CCCC1C1=CC(=O)c2ccccc21 (stereo not given)
SR leukemia
  TGI: > 100 µM
HOP-92 NSCLC
  TGI: 16.1 µM
NCI-H460 lung
  TGI: 32.5 µM
SF-268 CNS
  TGI: 11.8 µM
TK-10 renal
  TGI: 34.5 µM
SNB-75 CNS
  TGI: 17.7 µM
SK-MEL-2 melanoma
  TGI: 24.8 µM
OVCAR-4 ovarian
  TGI: 23.9 µM

## CCCNCC(O)/C=C/[Si](C)(C)C (stereo not given) (tested in a mixture with another compound)
SR leukemia
  TGI: > 100 µM
HOP-92 NSCLC
  TGI: > 100 µM
NCI-H460 lung
  TGI: > 100 µM
TK-10 renal
  TGI: > 100 µM
SNB-75 CNS
  TGI: > 100 µM
SK-MEL-2 melanoma
  TGI: > 100 µM

## CCCCCCc1ccc(O)cc1O
HOP-92 NSCLC
  TGI: 86.9 µM
NCI-H460 lung
  TGI: > 100 µM
SF-268 CNS
  TGI: > 100 µM
SNB-75 CNS
  TGI: > 100 µM
SK-MEL-2 melanoma
  TGI: 64 µM
OVCAR-4 ovarian
  TGI: > 100 µM

## Cc1ccccc1N=Nc1ccc(N=Nc2c(O)ccc3cc(S(=O)(=O)O)cc(S(=O)(=O)O)c23)c(C)c1
SR leukemia
  TGI: > 100 µM
HOP-92 NSCLC
  TGI: > 100 µM
HS 578T breast
  TGI: > 100 µM
NCI-H460 lung
  TGI: > 100 µM
PC-3 prostate
  TGI: > 100 µM
SF-268 CNS
  TGI: > 100 µM
TK-10 renal
  TGI: > 100 µM
SNB-75 CNS
  TGI: > 100 µM
SK-MEL-2 melanoma
  TGI: > 100 µM
OVCAR-4 ovarian
  TGI: > 100 µM

## NC(=O)c1nnc2cc(F)c(F)cc2c1N
SR leukemia
  TGI: > 100 µM
HS 578T breast
  TGI: 84.4 µM
NCI-H460 lung
  TGI: > 100 µM
PC-3 prostate
  TGI: > 100 µM
SF-268 CNS
  TGI: 49.9 µM
TK-10 renal
  TGI: > 100 µM
SNB-75 CNS
  TGI: 31.8 µM
SK-MEL-2 melanoma
  TGI: 38.5 µM
OVCAR-4 ovarian
  TGI: > 100 µM

## C/C=C1/CN2CC[C@@H]3c4ccccc4N4[C@H](C(=O)OC)[C@H]1C[C@H]2[C@]34/C=C/C1=COC[C@@H]2[C@H]1C[C@H]1c3c(c4ccccc4n3C)C[C@@H]2N1C
SR leukemia
  TGI: 19.3 µM
HOP-92 NSCLC
  TGI: 9 µM
HS 578T breast
  TGI: 8.93 µM
NCI-H460 lung
  TGI: 7.41 µM
PC-3 prostate
  TGI: 6.09 µM
SF-268 CNS
  TGI: 7.16 µM
TK-10 renal
  TGI: 7.5 µM
SK-MEL-2 melanoma
  TGI: 8.14 µM
OVCAR-4 ovarian
  TGI: 6.88 µM

## CC(=O)O[C@H]1CC[C@]2(C)[C@H]3C(=O)C=C4[C@@H]5C[C@](C)(C(=O)N6CCCNCC6)CC[C@]5(C)CC[C@@]4(C)[C@]3(C)CC[C@H]2C1(C)C
HOP-92 NSCLC
  GI50: 1.08 µM
  TGI: 2.41 µM
HS 578T breast
  GI50: 2.13 µM
  TGI: 4.69 µM
NCI-H460 lung
  GI50: 1.58 µM
  TGI: 3.11 µM
SF-268 CNS
  GI50: 1.8 µM
  TGI: 3.58 µM
TK-10 renal
  GI50: 1.77 µM
  TGI: 3.45 µM
SNB-75 CNS
  GI50: 1.34 µM
  TGI: 2.64 µM
SK-MEL-2 melanoma
  GI50: 1.93 µM
  TGI: 3.7 µM

## O=[N+]([O-])/C=C/c1cccc(F)c1
HOP-92 NSCLC
  TGI: 27.6 µM
HS 578T breast
  TGI: 9.18 µM
NCI-H460 lung
  TGI: 30.4 µM
PC-3 prostate
  TGI: 11.9 µM
SF-268 CNS
  TGI: 29.4 µM
TK-10 renal
  TGI: 14.3 µM
SNB-75 CNS
  TGI: 28.1 µM
SK-MEL-2 melanoma
  TGI: 29.9 µM
OVCAR-4 ovarian
  TGI: 16.8 µM

## O=C(N/N=C/c1cc(Br)cc(Br)c1[O-])c1ccccc1O.O=C(N/N=C/c1cc(Br)cc(Br)c1[O-])c1ccccc1O.[Cl-].[Fe+3]
SR leukemia
  TGI: 5.68 µM
HOP-92 NSCLC
  TGI: 6.12 µM
NCI-H460 lung
  TGI: 17.7 µM
SF-268 CNS
  TGI: 33.1 µM
TK-10 renal
  TGI: 20 µM
SK-MEL-2 melanoma
  TGI: 5.43 µM
OVCAR-4 ovarian
  TGI: 8.24 µM

## C[n+]1ccccc1/C=C/c1ccc2c(c1)OCO2
SR leukemia
  TGI: > 10 µM
HS 578T breast
  TGI: > 10 µM
NCI-H460 lung
  TGI: > 10 µM
PC-3 prostate
  TGI: > 10 µM
SF-268 CNS
  TGI: > 10 µM
TK-10 renal
  TGI: > 10 µM
SK-MEL-2 melanoma
  TGI: > 10 µM
OVCAR-4 ovarian
  TGI: > 10 µM

## Cc1c2ccccc2nc2[nH]c3ccncc3c12
SR leukemia
  TGI: > 100 µM
HOP-92 NSCLC
  TGI: 79.6 µM
HS 578T breast
  TGI: > 100 µM
NCI-H460 lung
  TGI: 39.8 µM
PC-3 prostate
  TGI: > 100 µM
SF-268 CNS
  TGI: 32.8 µM
TK-10 renal
  TGI: 59.4 µM
SNB-75 CNS
  TGI: > 100 µM
SK-MEL-2 melanoma
  TGI: > 100 µM
OVCAR-4 ovarian
  TGI: > 100 µM

## N=c1nc(N)nc(N)n1-c1ccc(S(N)(=O)=O)cc1
SR leukemia
  TGI: > 100 µM
HOP-92 NSCLC
  TGI: > 100 µM
NCI-H460 lung
  TGI: > 100 µM
PC-3 prostate
  TGI: > 100 µM
SF-268 CNS
  TGI: > 100 µM
TK-10 renal
  TGI: > 100 µM
SK-MEL-2 melanoma
  TGI: > 100 µM
OVCAR-4 ovarian
  TGI: > 100 µM

## CCOC(=O)C1=C(C)N2CCCOC2(C)C(C(=O)OC)C1c1cccc([N+](=O)[O-])c1 (stereo not given)
SR leukemia
  TGI: > 100 µM
HOP-92 NSCLC
  TGI: > 100 µM
NCI-H460 lung
  TGI: > 100 µM
SF-268 CNS
  TGI: > 100 µM
TK-10 renal
  TGI: > 100 µM
SNB-75 CNS
  TGI: 75.8 µM
SK-MEL-2 melanoma
  TGI: > 100 µM

## CN(C)CCNc1ccc2nnn3c4ccc(Cl)cc4c(=O)c1c23
SR leukemia
  TGI: 10.1 µM
HOP-92 NSCLC
  TGI: 14.2 µM
HS 578T breast
  TGI: 13.5 µM
NCI-H460 lung
  TGI: 14.8 µM
PC-3 prostate
  TGI: 13.6 µM
SF-268 CNS
  TGI: 23.1 µM
TK-10 renal
  TGI: 22.1 µM
SNB-75 CNS
  TGI: 9.78 µM
SK-MEL-2 melanoma
  TGI: 16.8 µM
OVCAR-4 ovarian
  TGI: 15.9 µM

## COc1cc2c(cc1O)CCN[C@@]21CS[C@H]2c3c(OC(C)=O)c(C)c4c(c3C(COC1=O)N1C2C2c3c(cc(C)c(OC)c3O)CC([C@@H]1O)N2C)OCO4 (stereo not given in full)
SR leukemia
  TGI: 0.00131 µM
HOP-92 NSCLC
  GI50: 0.00347 µM
  TGI: 0.064 µM
HS 578T breast
  GI50: 0.00279 µM
  TGI: 0.0137 µM
PC-3 prostate
  GI50: 0.00429 µM

## COc1cc2c(cc1OC)C(C1(O)CCCCC1)NCC2 (stereo not given)
SR leukemia
  TGI: > 100 µM
HOP-92 NSCLC
  TGI: > 100 µM
NCI-H460 lung
  TGI: > 100 µM
SF-268 CNS
  TGI: > 100 µM
TK-10 renal
  TGI: > 100 µM
SNB-75 CNS
  TGI: > 100 µM
SK-MEL-2 melanoma
  TGI: > 100 µM

## N=C(N)SC1c2ccccc2-c2cc([N+](=O)[O-])ccc21 (stereo not given)
SR leukemia
  TGI: 21.9 µM
HOP-92 NSCLC
  TGI: 33.5 µM
HS 578T breast
  TGI: 12.2 µM
NCI-H460 lung
  TGI: 17.2 µM
PC-3 prostate
  TGI: 13.8 µM
SF-268 CNS
  TGI: 14.3 µM
TK-10 renal
  TGI: 21.3 µM
SNB-75 CNS
  TGI: 5.7 µM
SK-MEL-2 melanoma
  TGI: 13.9 µM
OVCAR-4 ovarian
  TGI: 17.3 µM

## Cc1ccc(NCCN(C)CC(C)O)c2c(=O)c3ccc(Cl)cc3sc12 (stereo not given)
HS 578T breast
  GI50: 2.83 µM
  TGI: > 100 µM
PC-3 prostate
  GI50: 2.96 µM
  TGI: > 100 µM
SF-268 CNS
  GI50: 6.47 µM
  TGI: > 100 µM
TK-10 renal
  GI50: 5.08 µM
  TGI: > 100 µM
SNB-75 CNS
  GI50: 6.65 µM
  TGI: > 100 µM
OVCAR-4 ovarian
  GI50: 8.47 µM
  TGI: 81.8 µM

## Cc1nnc2sc(-c3ccc(N)cc3)nn12
SR leukemia
  TGI: > 100 µM
HOP-92 NSCLC
  TGI: > 100 µM
HS 578T breast
  TGI: > 100 µM
NCI-H460 lung
  TGI: > 100 µM
PC-3 prostate
  TGI: > 100 µM
SF-268 CNS
  TGI: > 100 µM
TK-10 renal
  TGI: > 100 µM
SNB-75 CNS
  TGI: 95.7 µM
SK-MEL-2 melanoma
  TGI: > 100 µM
OVCAR-4 ovarian
  TGI: > 100 µM

## Nc1nc(Cl)cc(NCCCCO)n1
SR leukemia
  TGI: > 100 µM
HOP-92 NSCLC
  TGI: > 100 µM
NCI-H460 lung
  TGI: > 100 µM
SF-268 CNS
  TGI: > 100 µM
TK-10 renal
  TGI: > 100 µM
SNB-75 CNS
  TGI: > 100 µM
SK-MEL-2 melanoma
  TGI: > 100 µM
OVCAR-4 ovarian
  TGI: > 100 µM

## O=S(=O)(O)c1cc(O)c2c(O)c(N=Nc3ccc(/C=C/c4ccc(N=Nc5c(S(=O)(=O)O)cc6cc(S(=O)(=O)O)cc(O)c6c5O)cc4S(=O)(=O)O)c(S(=O)(=O)O)c3)c(S(=O)(=O)O)cc2c1
SR leukemia
  TGI: > 100 µM
HOP-92 NSCLC
  TGI: > 100 µM
NCI-H460 lung
  TGI: > 100 µM
SF-268 CNS
  TGI: > 100 µM
TK-10 renal
  TGI: > 100 µM
SNB-75 CNS
  TGI: > 100 µM
SK-MEL-2 melanoma
  TGI: > 100 µM
OVCAR-4 ovarian
  TGI: > 100 µM
